Data published in patent US20070122360A1, “Nonaqueous gel composition for tooth whitening and tooth whitening set” (LION CORPORATION, priority 2003, published 2007).

What was measured:
[1] = Solubility of ingredient (B) in tooth whitening ingredient (A), visual check for undissolved residues; details: for Solubility in PEG#300 (Av. MW 280-320): 0.1 g in 100 g PEG#300, 37° C.; for Solubility in 1,3-butylene glycol: 0.1 g in 100 g 1,3-butylene glycol
Procedure: (§1) If the ingredient (B) is liquid, the term “is precipitated by an aqueous solution of calcium chloride” means that the ingredient (B) forms precipitates or becomes turbid.
A sample (0.1 g) of the ingredient (B) is added to 100 g of the tooth whitening ingredient (A), and the resulting mixture is stirred at 37° C. for 16 hours and allowed to stand at 37° C. for 24 hours. The mixture is visually examined for undissolved residues of the ingredient (B).
Criterion for Overall Rating: • ◯: More than 0.1 g is soluble in 100 g of ingredient (A) and less than 0.1 g is soluble in 100 g of aqueous solution of 1 mmol/L calcium chloride.
X: Other than specified above.

[2] = Solubility of ingredient (B) in aqueous solution of 1 mmol/L calcium chloride; details: 0.1 g in 100 g aqueous 1 mmol/L calcium chloride, 37° C.
Procedure: as §1
Solubility of the ingredient (B) in an aqueous solution of 1 mmol/L calcium chloride was determined in the same way as above.

[3] = Measurement of vapor pressure (vapor-liquid equilibrium apparatus)
Procedure: The sample (80 mL in a cell) was tested for vapor pressure at (25° C.) by using a vapor-liquid equilibrium measuring apparatus (VLE autolabo, from TOYO KOATSU Co., Ltd.).

[4] = Measurement of relative permittivity (LCR meter, 100 kHz, 1 V); type: physicochemical
Procedure: The sample (100 mL) was tested for relative permittivity at 25° C. at a frequency of 100 kHz and a voltage of 1 V by using an LCR meter (HP4284A, with HP16452A electrode for liquid, from Hewlett Packard).

Row | Structure (SMILES) | Solubility in Aqueous solution of 1 mmol/L calcium chloride [2] | Vapor pressure kPa (at 25° C.) [3] [kPa] | Relative Permittivity (at 25° C.) [4] | also measured
1 | CCCCCCCCCCCCCC(=O)O [Myristic acid] | X (solubility less than 0.1 g (with undissolved residues)) | – | – | Solubility in PEG#300 (Av. MW 280-320) [1]: ◯ (solubility more than 0.1 g (no undissolved residues))
2 | CC(C)O [Isopropanol] | – | 5819 | 19.9 | –
3 | CCCCCCCC/C=C\CCCCCCCC(=O)O [Oleic acid] | X (solubility less than 0.1 g (with undissolved residues)) | – | – | Solubility in PEG#300 (Av. MW 280-320) [1]: ◯ (solubility more than 0.1 g (no undissolved residues))
4 | OCC(O)CO [Glycerin] | – | 3 | 42.5 | –
5 | OCCO [Ethylene glycol] | – | 59 | 37.7 | –
6 | [Cl-].[Cl-].[Zn+2] [Zinc chloride, reference compound] | ◯ (solubility more than 0.1 g (no undissolved residues)) | – | – | Solubility in 1,3-butylene glycol ([1]; 37° C.): ◯ (solubility more than 0.1 g (no undissolved residues))
7 | CCO [Ethanol] | – | 7948 | 24.6 | –
8 | CC(O)CO (stereo not shown) [Propylene glycol] | – | 1 | 32.0 | –
9 | CC(O)CCO (stereo not shown) [1,3-dibutylene glycol] | – | 108 | 33.5 | –
10 | CCCCCC/C=C\CCCCCCCC(=O)O [Palmitoleic acid] | X (solubility less than 0.1 g (with undissolved residues)) | – | – | Solubility in 1,3-butylene glycol ([1]; 37° C.): ◯ (solubility more than 0.1 g (no undissolved residues)); Solubility in PEG#300 (Av. MW 280-320) [1]: ◯ (solubility more than 0.1 g (no undissolved residues)); Solubility in Propylene glycol ([1]; 0.1 g in 100 g Propylene glycol, 37° C.): ◯ (solubility more than 0.1 g (no undissolved residues))
11 | CCCCCCCCCCCC(=O)O [Lauric acid, reference compound] | ◯ (solubility more than 0.1 g (no undissolved residues)) | – | – | Solubility in 1,3-butylene glycol ([1]; 37° C.): ◯ (solubility more than 0.1 g (no undissolved residues))
12 | O [Water] | – | – | 78.3 | –
13 | OCCOCCO [Diethylene glycol] | – | 11 | 33.0 | –
14 | CCCCCCCC/C=C\CCCCCCCCCCCC(=O)O [Erucic acid] | X (solubility less than 0.1 g (with undissolved residues)) | – | – | Solubility in PEG#300 (Av. MW 280-320) [1]: ◯ (solubility more than 0.1 g (no undissolved residues))
15 | CC(O)COC(C)CO (stereo not shown) [Dipropylene glycol] | – | 0 | 26.2 | –
